Data from ChEMBL document CHEMBL1127291, “Bioreductive markers for hypoxic cells: 2-nitroimidazoles with biotinylated 1-substituents” (J Med Chem, 1994).

What was measured:
CaNT [1] = assay: Cytometric distribution of cell nuclei from CaNT tumors treated in mice; format: functional, cell-based; settings: Mus musculus
CaNT [2] = assay: Cytometric distribution of single cells from CaNT tumors treated in mice with breathing air; format: functional, cell-based; settings: Mus musculus
CaNT [3] = assay: Cytometric distribution of single cells from CaNT tumors treated in mice; format: functional, cell-based; settings: Mus musculus
CaNT [4] = assay: Cytometric distribution of single cells from CaNT tumors treated in mice with breathing carbogen; format: functional, cell-based; settings: Mus musculus
CaNT [5] = assay: Cytometric distribution of cell nuclei from CaNT tumors treated in mice with breathing carbogen; format: functional, cell-based; settings: Mus musculus
CaNT [6] = assay: Cytometric distribution of cell nuclei from CaNT tumors treated in mice with breathing air; format: functional, cell-based; settings: Mus musculus
[7] = Half life evaluated in plasma in vitro at 20 degree Centigrade; format: ADME, cell-free

half-life [7] [h] | SMILES | Distribution (CaNT [1]) [%] | Distribution (CaNT [2]) [%] | Distribution (CaNT [3]) [%] | Distribution (CaNT [4]) [%] | Distribution (CaNT [5]) [%] | Distribution (CaNT [6]) [%]
– | O=C1N[C@H]2[C@H](CS[C@H]2CCCCCn2ccnc2[N+](=O)[O-])N1 | 0.85 | 16.5 | 1.2 | 3.4 | 0.69 | 11.7
2 | O=C(CCCC[C@@H]1SC[C@@H]2NC(=O)N[C@@H]21)NCCNC(=O)Cn1ccnc1[N+](=O)[O-] | – | – | – | – | – | –
